How the values were obtained:
human PBMC = experiment: PBMC cytokine assay, interferon-alpha production (IFN-alpha multi-subtype ELISA); type: cell-based
Experimental: 50 mL of human blood from three donors was received from Research Blood Components (Brighton, Mass.) in sodium heparin tubes. […] The tubes were centrifuged at 2000 rpm for 30 minutes with low acceleration and braking (Thermo, Waltham, Mass., 75004506). The tubes were removed and the buffy coat PBMC layers were gently transferred to a fresh 50 mL conical and washed with DPBS. The tubes were centrifuged at 1450 rpm for 10 minutes. The supernatant was aspirated and the PBMC pellets were resuspended and washed in 50 mL of DPBS. The tubes were centrifuged at 1450 rpm for 10 minutes. […] The cell suspensions were adjusted to a concentration of 3.0×10^6 cells/mL live cells. […] Within 30 minutes, transfection mixtures were added to each well at a volume of 50 μL per well. […] The transfection mixtures were then transferred to each of the human PBMC plates at 50 μL per well (6 wells per mRNA sample). The plates were then incubated at 37° C. […] In order to harvest the supernatant, plates were centrifuged at 1450 rpm for 5 min in a swinging plate rotor. The supernatant of 6 wells transfected with the same mRNA was carefully harvested and pooled in a single well of a fresh 96-well plate. Supernatants were either frozen or used fresh until ELISA analysis was done. The ability of unmodified and modified mRNA to trigger innate immune recognition as measured by interferon-alpha production.

T7 RNA polymerase = T7 RNA polymerase (Escherichia phage T7, UniProt P00573); experiment: In vitro transcription yields of modified mRNA; type: biochemical; conditions: for EPO In Vitro Transcription yield: EPO mRNA made with the modified NTP(s); for GCSF In Vitro Transcription yield: GCSF mRNA made with the modified NTP(s); for Luc In Vitro Transcription yield: Luciferase mRNA made with the modified NTP(s)
T7 RNA polymerase, sequence (P00573 whole entry): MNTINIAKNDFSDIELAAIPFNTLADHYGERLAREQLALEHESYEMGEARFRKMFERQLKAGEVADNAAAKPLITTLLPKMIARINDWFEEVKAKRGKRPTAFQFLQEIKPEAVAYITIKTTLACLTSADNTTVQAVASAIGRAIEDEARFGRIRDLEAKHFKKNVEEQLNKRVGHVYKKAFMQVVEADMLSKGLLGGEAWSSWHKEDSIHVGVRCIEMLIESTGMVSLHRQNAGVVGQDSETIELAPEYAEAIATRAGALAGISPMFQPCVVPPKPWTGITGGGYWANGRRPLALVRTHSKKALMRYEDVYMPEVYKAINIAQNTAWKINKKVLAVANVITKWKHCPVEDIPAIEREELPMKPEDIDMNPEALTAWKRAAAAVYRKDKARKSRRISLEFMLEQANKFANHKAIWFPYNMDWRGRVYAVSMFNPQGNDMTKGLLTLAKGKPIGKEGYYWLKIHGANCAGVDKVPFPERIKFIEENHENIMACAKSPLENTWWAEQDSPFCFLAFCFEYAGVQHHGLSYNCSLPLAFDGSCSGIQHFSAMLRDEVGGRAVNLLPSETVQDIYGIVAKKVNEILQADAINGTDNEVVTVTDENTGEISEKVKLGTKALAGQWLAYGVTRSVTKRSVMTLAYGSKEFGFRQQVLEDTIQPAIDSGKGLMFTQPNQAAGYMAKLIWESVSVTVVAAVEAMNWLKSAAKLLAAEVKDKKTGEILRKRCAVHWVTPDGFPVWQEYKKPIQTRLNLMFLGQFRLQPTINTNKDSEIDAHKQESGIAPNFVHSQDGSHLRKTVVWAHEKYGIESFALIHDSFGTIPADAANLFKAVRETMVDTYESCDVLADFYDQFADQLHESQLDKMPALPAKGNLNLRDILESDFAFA

[1] = tested on: Rabbit Reticulocyte Lysate; experiment: In vitro translation screen, human GCSF modRNA (GCSF ELISA); type: biochemical; conditions: Table 20; 250 ng modRNA, 45 min, 30° C.
Experimental: (§1) The in vitro translation assay was done with the Rabbit Reticulocyte Lysate (nuclease-treated) kit (Promega, Madison, Wis.; Cat. #L4960) according to the manufacturer's instructions. The reaction buffer was a mixture of equal amounts of the amino acid stock solutions devoid of Leucine or Methionine provided in the kit.
(§2) The modRNAs of firefly Luciferase, human GCSF and human EPO, harboring chemical modifications on either the bases or the ribose units, were diluted in sterile nuclease-free water to a final concentration of 250 ng in 2.5 ul (Stock 100 ng/μl). The modRNA (250 ng) was added to the mixture of freshly prepared Rabbit Reticulocyte Lysate and reaction buffer.
(§3) Aliquots of the in vitro translation reaction containing human GCSF modRNA or human EPO mRNA were transferred and analyzed with a human GCSF-specific or EPO ELISA kit (both from R&D Systems, Minneapolis, Minn.; Cat. #s SCS50, DEP00 respectively) according to the manufacturer instructions. All samples were diluted until the determined values were within the linear range of the human GCSF or EPO ELISA standard curve.

HeLa cells [2] = experiment: Transfection in HeLa cells, human GCSF modRNA (GCSF ELISA of supernatant); type: cell-based; conditions: Table 22, 250 ng modRNA, 18 h to 22 h
Experimental: (§4) The day before transfection, 20.000 HeLa cells (ATCC no. CCL-2; Manassas, Va.) were harvested by treatment with Trypsin-EDTA solution (LifeTechnologies, Grand Island, N.Y.) and seeded in a total volume of 100 ul EMEM medium (supplemented with 10% FCS and 1× Glutamax) per well in a 96-well cell culture plate (Corning, Manassas, Va.). The cells were grown at 37° C. in 5% CO2 atmosphere overnight. Next day, 83 ng of Luciferase modRNA or 250 ng of human GCSF modRNA, harboring chemical modifications on the bases or the ribose units, were diluted in 10 ul final volume of OPTI-MEM (LifeTechnologies, Grand Island, N.Y.). Lipofectamine 2000 (LifeTechnologies, Grand Island, N.Y.) was used as transfection reagent and 0.2 μl were diluted in 10 ul final volume of OPTI-MEM. After 5 min incubation at room temperature, both solutions were combined and incubated additional 15 min at room temperature. Then the 20 μl were added to the 100 ul cell culture medium containing the HeLa cells. The plates were then incubated as described before.
After 18 h to 22 h incubation, cell culture supernatants of cells expressing human GCSF or human EPO were collected and centrifuged at 10.000 rcf for 2 min. The cleared supernatants were transferred and analyzed with a human GCSF-specific or EPO ELISA kit (both from R&D Systems, Minneapolis, Minn.; Cat. #s SCS50, DEP00, respectively) according to the manufacturer instructions. All samples were diluted until the determined values were within the linear range of the human GCSF or EPO ELISA standard curve.

HeLa cells [3] = experiment: Transfection in HeLa cells, Luciferase modRNA (luciferase assay, relative light units); type: cell-based, human; conditions: Table 22, 83 ng modRNA, Lipofectamine 2000, 18 h to 22 h
Experimental: as §4
After 18 h to 22 h incubation, cells expressing luciferase were lysed with 100 μl Passive Lysis Buffer (Promega, Madison, Wis.) according to manufacturer instructions. Aliquots of the lysates were transferred to white opaque polystyrene 96-well plates (Corning, Manassas, Va.) and combined with 100 ul complete luciferase assay solution (Promega, Madison, Wis.). The lysate volumes were adjusted or diluted until no more than 2 mio relative light units per well were detected for the strongest signal producing samples. […] The plate reader was a BioTek Synergy H1 (BioTek, Winooski, Vt.).

HeLa cells [4] = experiment: Transfection in HeLa cells, human EPO modRNA (EPO ELISA of supernatant); type: cell-based; conditions: Table 22, 18 h to 22 h
[5] = tested on: Rabbit Reticulocyte Lysate; experiment: In vitro translation screen, firefly Luciferase modRNA (luciferase assay, relative light units); type: biochemical; conditions: Table 20; 250 ng modRNA, 45 min, 30° C.
Experimental: as §1, §2
After 45 min incubation, the reaction was stopped by placing the plate on ice. Aliquots of the in vitro translation reaction containing luciferase modRNA were transferred to white opaque polystyrene 96-well plates (Corning, Manassas, Va.; Cat. # CLS3912) and combined with 100 ul complete luciferase assay solution (Promega, Madison, Wis.). The volumes of the in vitro translation reactions were adjusted or diluted until no more than 2 million relative light units per well were detected for the strongest signal producing samples. […] The plate reader was a BioTek Synergy H1 (BioTek, Winooski, Vt.).

[6] = tested on: Rabbit Reticulocyte Lysate; experiment: In vitro translation screen, human EPO modRNA (EPO ELISA); type: biochemical; conditions: Table 20; 250 ng modRNA, 45 min, 30° C.
Experimental: as §1, §2, §3

Compound	interferon-alpha concentration in PBMC supernatant (human PBMC; Luc mRNA, 1st value in cell)	interferon-alpha concentration in PBMC supernatant (human PBMC; Luc mRNA, 2nd value in cell)	interferon-alpha concentration in PBMC supernatant (human PBMC; Luc mRNA, 3rd value in cell)	interferon-alpha concentration in PBMC supernatant (human PBMC; hEPO mRNA, 1st value in cell)	interferon-alpha concentration in PBMC supernatant (human PBMC; hEPO mRNA, 2nd value in cell)	interferon-alpha concentration in PBMC supernatant (human PBMC; hEPO mRNA, 3rd value in cell)	interferon-alpha concentration in PBMC supernatant (human PBMC; hGCSF mRNA, 1st value in cell)	interferon-alpha concentration in PBMC supernatant (human PBMC; hGCSF mRNA, 2nd value in cell)	interferon-alpha concentration in PBMC supernatant (human PBMC; hGCSF mRNA, 3rd value in cell)	EPO In Vitro Transcription yield (T7 RNA polymerase)	GCSF In Vitro Transcription yield (T7 RNA polymerase)	Luc In Vitro Transcription yield (T7 RNA polymerase)	GCSF Expression [1]	GCSF Expression (HeLa cells [2])	Luc Expression (RLUs) (HeLa cells [3])	Epo Expression (HeLa cells [4])	Luc Expression (RLUs) [5]	Epo Expression [6]
Nc1nc(=O)n([C@@H]2O[C@H](COP(=O)(O)OP(=O)(O)OP(=O)(O)O)C(O)C2O)cc1Br (stereo in doubt) [03601014008 (379), 5-Bromo-CTP]	5470 pg/mL	1080 pg/mL	5420 pg/mL	2300 pg/mL	487.5 pg/mL	500 pg/mL	2808.33 pg/mL	2266.67 pg/mL	1650 pg/mL	0.3454 mg	0.3685 mg	0.5161 mg	13510 pg/mL	1003000 pg/mL	125700 RLUs	3263000 pg/mL	194900 RLUs	8581 pg/mL
COc1cn([C@@H]2O[C@H](COP(=O)(O)OP(=O)(O)OP(=O)(O)O)C(O)C2O)c(=O)[nH]c1=O (stereo in doubt) [Compound 00901013007, 5-methoxy-UTP]	390 pg/mL	-70 pg/mL	-170 pg/mL	-210 pg/mL	162.5 pg/mL	150 pg/mL	350 pg/mL	-41.66 pg/mL	40 pg/mL	0.1727 mg	0.1546 mg	0.3817 mg	26440 pg/mL	1399000 pg/mL	31580 RLUs	1116000 pg/mL	306600 RLUs	17530 pg/mL
CC(=O)Nc1ccn([C@@H]2O[C@H](COP(=O)(O)OP(=O)(O)OP(=O)(O)O)C(O)C2O)c(=O)n1 (stereo in doubt) [Compound 00901014007, N4-Ac-CTP]	7170 pg/mL	2500 pg/mL	5879 pg/mL	4050 pg/mL	2137.5 pg/mL	5850 pg/mL	5683.33 pg/mL	4883.33 pg/mL	4590 pg/mL	0.4351 mg	0.3658 mg	0.4394 mg	8794 pg/mL	2094000 pg/mL	141300 RLUs	2907000 pg/mL	167600 RLUs	8675 pg/mL

Reference: patent US20160304552A1, “MODIFIED NUCLEIC ACID MOLECULES AND USES THEREOF” (MODERNA THERAPEUTICS, INC., priority 2013, published 2016)
